Series [1] in a line: Dose ranging study: toxicity and side effects of different TPA doses administered clinically by i.v. infusion. It is filed as in vivo, human. On the procedure:
TPA solution in a sterile syringe was injected into 200 ml of sterile saline and mixed well for i.v. infusion.
One mg TPA in solution was mixed well with 200 ml of sterile saline for intravenous infusion which was completed in 1 h at the rate of 16 μg/min. […] The above symptoms could be alleviated by giving the patients glucocorticoids. […] However, these side effects were short lived and reversible.
0.5 mg of TPA in solution was mixed well with 200 ml of saline for intravenous infusion which was completed in 1 h at the rate of 8 μg/min. […] Difficulty in breathing was not observed. The cardiac, hepatic, renal and pulmonary functions were all normal.
0.25 mg of TPA in solution was mixed well with 200 ml of saline for intravenous infusion which was completed in 1 h at the rate of 4 μg/min. […] The cardiac, hepatic, renal and pulmonary functions were all normal.

For series [2] the following is noted: patients with bone marrow function depressed by chemotherapy; Han et al. 1998; cited from earlier work.
A further series relates to HIV. Conditions: MT-4 cells; Mekkawy et al. 2000; cited from earlier work.
For series [3] the following is noted: polar organic solvents and water; cited from earlier work.
The mark [4] stands for this setting: 0.25 mg/patient x 4/week, i.v. infusion.
Where [5] appears, read: 0.5 mg/patient x 2/week, i.v. infusion.
The mark [6] stands for this setting: 1 mg/patient/week, i.v. infusion.
Where [7] appears, read: 1 mg/patient/week, i.v. infusion in 1 h at 16 μg/min.

For `CCCCCCCCCCCCCC(=O)O[C@@H]1[C@@H](C)[C@@]2(O)[C@@H](C=C(CO)C[C@]3(O)C(=O)C(C)=C[C@@H]23)[C@@H]2C(C)(C)[C@]12OC(C)=O` (stereo in doubt) [TPA, 12-O-tetradecanoylphorbol-13-acetate], in series [1] (setting [4]), the “Hb in the urine” value is given as “No Hb was detected in the urine”; the “cardiac, hepatic, renal and pulmonary functions” value (“cardiac, hepatic” for short) is listed as “all normal”; the difficulty in breathing result was “no patient suffered difficulty in breathing”. Further, the “symptoms such as chills and fever” value in series [1] (0.25 mg/patient x 4/week, i.v. infusion in 1 h at 4 μg/min) is reported as “also observed, but to a much lesser extent than with the higher dosages”. In series [1] (setting [5]), the “Hb in the urine” value was “Occasionally, Hb was detected in patients' urine”; the “cardiac, hepatic” value is on record as “all normal”; the difficulty in breathing result was “not observed”; the tolerability entry was “tolerated the lower dose more easily”. Besides, in series [1] (setting [6]), the “Hb in the urine” value was “Hb was detected in the urine”; the bleeding result is on record as “caused a minority of patients to bleed”; the “cardiac, hepatic” value was “all found to be normal”; the difficulty in breathing result was “several patients suffered for a short period of time difficulty in breathing”. For the same compound, in series [1] (setting [7]), the duration of chills entry is “about 30 min”, the duration of fever is 3 to 5 h, the “fever: patients' temperature reached” value is 37.5-39.5 °C and the “onset of chills after TPA administration” value was “One hour after TPA administration”. In addition, the local irritation entry in series [1] (TPA application (reason for giving it by i.v. infusion)) was “strong local irritation”. Moreover, the “circulating white blood cells and neutrophils” value in series [2] is “cause an increase in circulating white blood cells and neutrophils”. For the same compound, the HIV-cytopathic effects result in the series with HIV is on record as “inhibit the HIV-cytopathic effects on MT-4 cells”.

As for `CC1=C[C@H]2[C@@]3(O)[C@H](C)[C@@H](O)[C@]4(O)[C@H]([C@@H]3C=C(CO)C[C@]2(O)C1=O)C4(C)C` [Phorbol], in series [3], the solubility result was “well soluble in most polar organic solvents and in water”.

(Values after patent US20190350889A1, “Compositions And Methods Of Use Of Phorbol Esters In The Treatment Of Parkinson's Disease” (priority 2016, published 2019).)
